According to ChEMBL document CHEMBL2176989, “Design, synthesis, and pharmacological evaluation of piperidin-4-yl amino aryl sulfonamides: novel, potent, selective, orally active, and brain penetrant 5-HT₆ receptor antagonists” (J Med Chem, 2012):
pEC50, pIC50, pKi: −log10 of the molar value. Activity calls are given as the source filed them. No cut-off for these calls is given here.

Experiments:
[1] = target: Voltage-gated inwardly rectifying potassium channel KCNH2 (Homo sapiens, UniProt Q12809); test: Displacement of [3H]astemizole from human ERG by microbeta scintillation counting
Rattus norvegicus [2] = test: Toxicity in po dosed Wistar rat assessed as phospholipidosis in multiple organs administered as repeated dose for 7 days; type: organism-based; settings: in vivo, 168 h
Rattus norvegicus [3] = test: Procognitive activity in Wistar rat assessed as reversal of time delay induced-memory deficit at 3 mg/kg, po by object recognition test; type: functional, organism-based; set-up: dose 3 mg/kg
Rattus norvegicus [4] = test: Procognitive activity in Wistar rat assessed as reversal of time delay induced-memory deficit at 1 mg/kg, po by object recognition test; type: functional, organism-based; set-up: dose 1 mg/kg
[5] = AUC (0 to 24 hrs) in fasted Wistar rat at 10 mg/kg, po; type: ADME, organism-based; set-up: time < 24 hr, dose 10 mg/kg, route oral; settings: plasma
[6] = Oral bioavailability in fasted Wistar rat at 10 mg/kg; type: ADME, organism-based; settings: in vivo
[7] = Tmax in fasted Wistar rat at 10 mg/kg, po; type: ADME, organism-based; set-up: dose 10 mg/kg, route oral; settings: in vivo
[8] = Cmax in fasted Wistar rat at 10 mg/kg, po; type: ADME, organism-based; set-up: dose 10 mg/kg, route oral; settings: in vivo
[9] = Clearance in Wistar rat at 10 mg/kg, iv; type: ADME, organism-based; set-up: dose 10 mg/kg, route intravenous; settings: in vivo
[10] = Apparent volume of distribution in Wistar rat at 10 mg/kg, iv; type: ADME, organism-based; set-up: dose 10 mg/kg, route intravenous; settings: in vivo, read-out: Vz
[11] = Half life in Wistar rat at 10 mg/kg, iv; type: ADME, organism-based; set-up: dose 10 mg/kg, route intravenous; settings: in vivo
[12] = AUC (0 to 24 hrs) in Wistar rat at 10 mg/kg, iv; type: ADME, organism-based; set-up: time < 24 hr, dose 10 mg/kg, route intravenous; settings: plasma
[13] = target: T1, 5-hydroxytryptamine receptor 1A (Homo sapiens, UniProt P08908); test: Binding affinity to 5HT1A receptor
T1 sequence (P08908 whole entry): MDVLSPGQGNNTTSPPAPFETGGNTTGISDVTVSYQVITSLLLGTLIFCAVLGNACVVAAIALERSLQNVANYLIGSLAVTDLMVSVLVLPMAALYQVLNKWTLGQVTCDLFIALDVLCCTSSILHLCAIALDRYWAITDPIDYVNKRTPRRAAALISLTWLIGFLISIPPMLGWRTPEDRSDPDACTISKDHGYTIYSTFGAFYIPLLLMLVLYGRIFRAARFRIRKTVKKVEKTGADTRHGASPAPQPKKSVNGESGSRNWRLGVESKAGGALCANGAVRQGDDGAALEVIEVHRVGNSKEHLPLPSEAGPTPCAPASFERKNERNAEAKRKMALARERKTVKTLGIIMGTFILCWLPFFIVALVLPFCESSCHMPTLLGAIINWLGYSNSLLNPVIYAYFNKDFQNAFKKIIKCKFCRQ

[14] = target: 5-hydroxytryptamine receptor 4 (Homo sapiens, UniProt Q13639); test: Binding affinity to 5HT4 receptor
[15] = target: T2, 5-hydroxytryptamine receptor 3A (Homo sapiens, UniProt P46098); test: Binding affinity to 5HT3 receptor
T2 sequence (P46098 whole entry): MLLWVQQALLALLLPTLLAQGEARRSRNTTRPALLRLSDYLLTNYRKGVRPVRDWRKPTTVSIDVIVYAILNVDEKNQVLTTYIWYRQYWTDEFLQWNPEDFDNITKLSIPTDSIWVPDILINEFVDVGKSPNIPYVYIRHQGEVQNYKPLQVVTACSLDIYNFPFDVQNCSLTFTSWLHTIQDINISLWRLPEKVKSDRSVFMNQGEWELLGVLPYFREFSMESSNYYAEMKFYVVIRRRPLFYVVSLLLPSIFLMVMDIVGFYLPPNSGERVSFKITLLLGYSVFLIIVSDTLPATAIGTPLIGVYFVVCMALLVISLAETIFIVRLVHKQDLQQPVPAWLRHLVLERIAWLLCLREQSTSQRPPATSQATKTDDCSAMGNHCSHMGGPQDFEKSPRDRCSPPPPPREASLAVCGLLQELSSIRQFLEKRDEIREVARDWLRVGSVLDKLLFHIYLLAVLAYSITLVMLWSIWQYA

[16] = target: Sodium-dependent dopamine transporter (Homo sapiens, UniProt Q01959); test: Binding affinity to dopamine transporter
[17] = target: Sodium-dependent serotonin transporter (Homo sapiens, UniProt P31645); test: Binding affinity to SERT
[18] = target: T3, Alpha-1B adrenergic receptor (Homo sapiens, UniProt P35368); test: Binding affinity to adrenergic alpha1B receptor
T3 sequence (P35368 whole entry): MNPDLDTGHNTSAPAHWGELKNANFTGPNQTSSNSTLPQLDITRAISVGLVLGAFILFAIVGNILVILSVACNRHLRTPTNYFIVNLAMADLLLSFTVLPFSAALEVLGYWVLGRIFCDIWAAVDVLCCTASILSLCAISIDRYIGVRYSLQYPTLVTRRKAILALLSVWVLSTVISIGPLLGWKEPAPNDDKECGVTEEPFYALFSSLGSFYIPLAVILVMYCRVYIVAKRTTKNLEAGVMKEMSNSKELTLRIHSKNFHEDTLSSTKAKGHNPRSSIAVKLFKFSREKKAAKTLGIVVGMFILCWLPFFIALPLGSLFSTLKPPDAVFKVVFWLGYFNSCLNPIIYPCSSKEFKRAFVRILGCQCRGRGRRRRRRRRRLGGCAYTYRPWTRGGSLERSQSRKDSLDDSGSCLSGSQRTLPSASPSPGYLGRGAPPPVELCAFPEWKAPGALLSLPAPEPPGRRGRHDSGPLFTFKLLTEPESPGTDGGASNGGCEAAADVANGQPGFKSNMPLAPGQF

Histamine H1 receptor = Histamine H1 receptor (Homo sapiens, UniProt P35367); test: Binding affinity to histamine H1 receptor
D(2) dopamine receptor = D(2) dopamine receptor (Homo sapiens, UniProt P14416); test: Binding affinity to dopamine D2 receptor
[19] = target: 5-hydroxytryptamine receptor 7 (Homo sapiens, UniProt P34969); test: Binding affinity to 5HT7 receptor
[20] = target: T4, 5-hydroxytryptamine receptor 2C (Homo sapiens, UniProt P28335); test: Binding affinity to 5HT2C receptor
T4 sequence (P28335 whole entry): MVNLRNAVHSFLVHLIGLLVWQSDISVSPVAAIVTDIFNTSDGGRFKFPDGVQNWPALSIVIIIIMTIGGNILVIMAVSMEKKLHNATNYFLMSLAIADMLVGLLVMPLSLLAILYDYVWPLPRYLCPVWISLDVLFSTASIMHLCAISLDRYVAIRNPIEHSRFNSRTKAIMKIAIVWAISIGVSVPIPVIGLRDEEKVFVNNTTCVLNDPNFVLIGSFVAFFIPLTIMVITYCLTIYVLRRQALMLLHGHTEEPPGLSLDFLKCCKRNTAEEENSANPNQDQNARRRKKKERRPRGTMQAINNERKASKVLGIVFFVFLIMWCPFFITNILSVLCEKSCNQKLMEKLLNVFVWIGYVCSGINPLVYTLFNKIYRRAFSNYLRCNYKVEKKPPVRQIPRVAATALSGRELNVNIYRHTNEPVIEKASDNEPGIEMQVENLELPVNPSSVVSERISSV

[21] = target: 5-hydroxytryptamine receptor 2A (Homo sapiens, UniProt P28223); test: Binding affinity to 5HT2A receptor
[22] = Ratio of drug uptake in brain to plasma in Wistar rat at 10 mg/kg, po after 1 hr; type: ADME, organism-based; set-up: dose 10 mg/kg, route oral; settings: read-out: BPR
[23] = target: 5-hydroxytryptamine receptor 6 (Homo sapiens) (UniProt P50406); test: Antagonist activity at human recombinant 5HT6 receptor expressed in CHO cells assessed as inhibition of 5HT-induced luciferase activity after 4 hrs by reporter gene assay relative to control; type: functional, cell-based
[24] = target: 5-hydroxytryptamine receptor 6 (Homo sapiens) (UniProt P50406); test: Antagonist activity at human recombinant 5HT6 receptor expressed in CHO cells assessed as inhibition of 5HT-induced luciferase activity after 4 hrs by reporter gene assay; type: functional, cell-based
Cytochrome P450 3A4 = Cytochrome P450 3A4 (Homo sapiens, UniProt P08684); test: Inhibition of CYP3A4 in human liver microsomes using midazolam as substrate after 5 mins by LC-MS/MS analysis in presence of NADPH
[25] = Drug metabolism in human liver microsomes at 2.5 uM at 30 mins by LC-MS/MS analysis; type: ADME, Microsome; settings: read-out: Drug metabolism
[26] = Drug metabolism in Wistar rat liver microsomes at 2.5 uM at 30 mins by LC-MS/MS analysis; type: ADME, Microsome; settings: read-out: Drug metabolism
Cytochrome P450 2D6 = Cytochrome P450 2D6 (Homo sapiens, UniProt P10635); test: Inhibition of CYP2D6 in human liver microsomes using dextromethorphan as substrate after 10 mins by LC-MS/MS analysis in presence of NADPH
Chain of Cytochrome P450 2D6 (P10635 whole entry): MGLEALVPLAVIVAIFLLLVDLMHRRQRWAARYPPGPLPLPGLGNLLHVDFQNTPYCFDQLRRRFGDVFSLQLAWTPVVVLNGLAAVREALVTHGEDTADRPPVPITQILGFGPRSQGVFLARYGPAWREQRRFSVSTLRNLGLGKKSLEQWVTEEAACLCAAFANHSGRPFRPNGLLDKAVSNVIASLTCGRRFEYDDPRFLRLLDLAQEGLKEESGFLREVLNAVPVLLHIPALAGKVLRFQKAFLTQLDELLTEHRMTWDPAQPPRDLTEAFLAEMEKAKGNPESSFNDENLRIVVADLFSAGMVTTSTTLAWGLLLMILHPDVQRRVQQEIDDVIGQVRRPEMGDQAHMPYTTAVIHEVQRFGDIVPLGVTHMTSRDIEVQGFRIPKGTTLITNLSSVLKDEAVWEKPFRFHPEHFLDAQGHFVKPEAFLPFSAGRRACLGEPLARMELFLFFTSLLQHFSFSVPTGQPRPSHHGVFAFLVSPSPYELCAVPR

Chain of 5-hydroxytryptamine receptor 6 (Homo sapiens) (P50406 whole entry): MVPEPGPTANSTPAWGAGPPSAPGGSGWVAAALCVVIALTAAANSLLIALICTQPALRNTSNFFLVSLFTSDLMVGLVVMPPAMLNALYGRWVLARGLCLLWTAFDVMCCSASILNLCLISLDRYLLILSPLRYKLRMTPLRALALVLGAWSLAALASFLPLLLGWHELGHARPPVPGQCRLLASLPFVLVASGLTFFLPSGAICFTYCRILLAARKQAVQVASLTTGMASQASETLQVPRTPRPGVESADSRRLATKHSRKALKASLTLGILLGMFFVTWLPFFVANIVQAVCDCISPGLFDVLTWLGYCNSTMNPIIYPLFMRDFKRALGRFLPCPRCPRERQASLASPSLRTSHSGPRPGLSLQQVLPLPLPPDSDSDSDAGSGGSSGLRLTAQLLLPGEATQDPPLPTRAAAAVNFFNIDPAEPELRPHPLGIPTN
Chain of Cytochrome P450 3A4 (P08684 whole entry): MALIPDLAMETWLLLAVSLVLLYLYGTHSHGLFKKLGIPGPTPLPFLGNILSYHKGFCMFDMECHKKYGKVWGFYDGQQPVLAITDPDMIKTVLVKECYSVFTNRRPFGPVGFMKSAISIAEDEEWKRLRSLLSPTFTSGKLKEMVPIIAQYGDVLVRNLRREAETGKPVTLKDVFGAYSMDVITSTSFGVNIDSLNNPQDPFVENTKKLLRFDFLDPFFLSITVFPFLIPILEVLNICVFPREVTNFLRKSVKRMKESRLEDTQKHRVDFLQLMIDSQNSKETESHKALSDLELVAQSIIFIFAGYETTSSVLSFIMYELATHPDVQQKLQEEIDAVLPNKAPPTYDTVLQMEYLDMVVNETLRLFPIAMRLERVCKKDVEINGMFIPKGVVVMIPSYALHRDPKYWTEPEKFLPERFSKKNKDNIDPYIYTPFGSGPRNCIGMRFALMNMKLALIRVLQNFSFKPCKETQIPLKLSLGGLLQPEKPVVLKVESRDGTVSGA
Chain of Voltage-gated inwardly rectifying potassium channel KCNH2 (Q12809 whole entry): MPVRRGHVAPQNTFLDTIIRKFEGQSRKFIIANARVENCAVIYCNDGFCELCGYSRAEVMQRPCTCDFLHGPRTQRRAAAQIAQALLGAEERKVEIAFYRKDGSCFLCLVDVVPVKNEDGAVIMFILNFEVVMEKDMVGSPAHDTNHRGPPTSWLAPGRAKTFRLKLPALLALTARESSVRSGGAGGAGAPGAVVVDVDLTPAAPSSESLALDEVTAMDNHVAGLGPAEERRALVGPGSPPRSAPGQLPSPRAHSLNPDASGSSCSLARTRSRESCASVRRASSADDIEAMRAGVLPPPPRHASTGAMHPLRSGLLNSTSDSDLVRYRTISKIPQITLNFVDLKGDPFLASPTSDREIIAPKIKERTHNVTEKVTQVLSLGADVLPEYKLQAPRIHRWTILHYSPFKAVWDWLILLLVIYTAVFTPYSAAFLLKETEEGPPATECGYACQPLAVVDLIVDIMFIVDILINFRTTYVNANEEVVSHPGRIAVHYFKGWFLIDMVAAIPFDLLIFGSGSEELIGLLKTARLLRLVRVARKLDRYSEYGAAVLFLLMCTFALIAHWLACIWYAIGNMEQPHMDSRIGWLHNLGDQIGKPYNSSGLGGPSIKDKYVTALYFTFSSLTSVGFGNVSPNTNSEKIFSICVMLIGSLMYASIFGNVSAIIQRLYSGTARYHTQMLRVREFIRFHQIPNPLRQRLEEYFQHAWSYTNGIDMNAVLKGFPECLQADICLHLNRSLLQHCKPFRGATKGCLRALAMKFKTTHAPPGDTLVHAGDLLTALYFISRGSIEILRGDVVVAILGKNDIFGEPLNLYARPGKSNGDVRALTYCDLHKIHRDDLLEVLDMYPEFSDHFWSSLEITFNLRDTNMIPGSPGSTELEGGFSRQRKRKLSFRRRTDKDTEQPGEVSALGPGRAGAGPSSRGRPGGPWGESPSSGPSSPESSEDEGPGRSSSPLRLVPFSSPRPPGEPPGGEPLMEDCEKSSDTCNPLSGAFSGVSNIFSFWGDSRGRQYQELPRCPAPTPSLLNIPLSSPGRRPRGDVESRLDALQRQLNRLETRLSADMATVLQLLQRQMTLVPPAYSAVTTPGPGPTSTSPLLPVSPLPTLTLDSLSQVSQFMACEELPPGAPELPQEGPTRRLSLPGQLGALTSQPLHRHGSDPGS
Chain of Histamine H1 receptor (P35367 whole entry): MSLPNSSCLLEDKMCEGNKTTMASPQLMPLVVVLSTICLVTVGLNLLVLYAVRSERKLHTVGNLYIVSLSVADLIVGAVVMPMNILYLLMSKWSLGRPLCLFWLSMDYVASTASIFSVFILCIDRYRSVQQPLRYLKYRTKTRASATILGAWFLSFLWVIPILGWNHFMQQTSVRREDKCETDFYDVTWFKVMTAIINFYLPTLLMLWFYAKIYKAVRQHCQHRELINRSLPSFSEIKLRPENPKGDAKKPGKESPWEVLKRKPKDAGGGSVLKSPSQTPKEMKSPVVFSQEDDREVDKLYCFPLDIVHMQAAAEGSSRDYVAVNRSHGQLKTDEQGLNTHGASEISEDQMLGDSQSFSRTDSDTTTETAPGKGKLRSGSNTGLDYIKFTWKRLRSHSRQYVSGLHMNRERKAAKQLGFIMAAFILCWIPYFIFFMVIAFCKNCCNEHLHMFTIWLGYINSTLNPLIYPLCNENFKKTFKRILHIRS
Chain of 5-hydroxytryptamine receptor 2A (P28223 whole entry): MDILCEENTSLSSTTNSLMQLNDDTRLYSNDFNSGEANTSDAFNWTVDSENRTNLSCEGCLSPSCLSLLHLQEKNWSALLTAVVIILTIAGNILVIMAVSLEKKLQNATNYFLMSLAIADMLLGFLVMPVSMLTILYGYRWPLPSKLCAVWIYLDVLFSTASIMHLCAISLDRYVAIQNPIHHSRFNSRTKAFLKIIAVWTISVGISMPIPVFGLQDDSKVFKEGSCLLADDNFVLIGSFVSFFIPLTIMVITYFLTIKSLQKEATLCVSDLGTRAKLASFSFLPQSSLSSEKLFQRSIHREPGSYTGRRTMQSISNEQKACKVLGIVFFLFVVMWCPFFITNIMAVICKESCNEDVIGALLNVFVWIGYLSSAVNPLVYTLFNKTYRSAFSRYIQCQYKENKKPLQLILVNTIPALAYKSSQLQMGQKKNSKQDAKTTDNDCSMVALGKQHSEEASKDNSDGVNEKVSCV
Chain of D(2) dopamine receptor (P14416 whole entry): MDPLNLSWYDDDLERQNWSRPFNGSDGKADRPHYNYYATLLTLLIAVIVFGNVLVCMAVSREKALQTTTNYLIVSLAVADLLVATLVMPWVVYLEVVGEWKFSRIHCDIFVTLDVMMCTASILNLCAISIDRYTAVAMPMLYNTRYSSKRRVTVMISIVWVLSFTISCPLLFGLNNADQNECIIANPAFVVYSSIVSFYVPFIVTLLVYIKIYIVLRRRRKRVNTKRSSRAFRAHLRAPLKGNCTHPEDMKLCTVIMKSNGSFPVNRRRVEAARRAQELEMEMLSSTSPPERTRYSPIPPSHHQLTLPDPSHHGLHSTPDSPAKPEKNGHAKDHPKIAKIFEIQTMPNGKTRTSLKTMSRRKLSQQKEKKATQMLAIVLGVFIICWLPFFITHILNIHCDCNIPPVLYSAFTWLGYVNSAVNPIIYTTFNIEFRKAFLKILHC
Chain of Sodium-dependent dopamine transporter (Q01959 whole entry): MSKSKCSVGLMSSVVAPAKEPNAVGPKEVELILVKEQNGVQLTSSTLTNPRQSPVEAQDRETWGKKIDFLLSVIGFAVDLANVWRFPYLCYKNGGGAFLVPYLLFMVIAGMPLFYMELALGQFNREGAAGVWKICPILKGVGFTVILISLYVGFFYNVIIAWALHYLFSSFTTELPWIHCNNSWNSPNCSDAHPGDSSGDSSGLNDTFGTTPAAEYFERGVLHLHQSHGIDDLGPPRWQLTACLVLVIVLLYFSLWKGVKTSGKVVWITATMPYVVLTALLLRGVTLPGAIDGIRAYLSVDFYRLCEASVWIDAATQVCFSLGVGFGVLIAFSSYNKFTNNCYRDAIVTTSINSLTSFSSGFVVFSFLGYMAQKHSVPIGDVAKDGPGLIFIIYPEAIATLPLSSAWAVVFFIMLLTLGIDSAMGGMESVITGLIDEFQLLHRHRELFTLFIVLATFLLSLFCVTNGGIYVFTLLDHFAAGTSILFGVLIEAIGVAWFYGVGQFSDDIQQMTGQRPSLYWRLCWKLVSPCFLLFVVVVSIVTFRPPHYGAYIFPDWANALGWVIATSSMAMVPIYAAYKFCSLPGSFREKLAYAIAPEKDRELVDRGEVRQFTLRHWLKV
Chain of 5-hydroxytryptamine receptor 4 (Q13639 whole entry): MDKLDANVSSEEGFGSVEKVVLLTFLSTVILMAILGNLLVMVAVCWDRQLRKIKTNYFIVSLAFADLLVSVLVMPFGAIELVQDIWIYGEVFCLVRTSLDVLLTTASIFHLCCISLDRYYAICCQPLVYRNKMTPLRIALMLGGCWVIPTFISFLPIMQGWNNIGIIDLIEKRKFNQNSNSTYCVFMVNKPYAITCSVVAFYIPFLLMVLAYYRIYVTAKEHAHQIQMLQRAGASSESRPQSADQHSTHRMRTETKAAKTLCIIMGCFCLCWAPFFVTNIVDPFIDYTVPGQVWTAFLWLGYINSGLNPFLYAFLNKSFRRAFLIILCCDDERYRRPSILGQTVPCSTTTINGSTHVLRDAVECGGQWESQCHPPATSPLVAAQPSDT

COc1ccc(S(=O)(=O)n2cc(C)c3cc(Cl)ccc32)cc1NC1CCN(C)CC1
pKi [1]: 6.10 | Activity (Rattus norvegicus [2]): Toxic | Activity (Rattus norvegicus [3]): Active | Activity (Rattus norvegicus [4]): Active | AUC(0-t) at 24 h [5]: 2090 ng·h/mL | bioavailability [6]: 75% | Tmax [7]: 1.67 h | Cmax [8]: 296 ng/mL | clearance [9]: 59 mL/min/kg | Vd [10]: 11 L/kg | half-life [11]: 2.2 h | AUC(0-t) at 24 h [12]: 2760 ng·h/mL | pEC50 [13]: < 6.00 | pEC50 [14]: < 5.00 | pIC50 [15]: < 5.00 | pKi [16]: 5.54 | pKi [17]: 5.71 | pKi [18]: 6.02 | pKi (Histamine H1 receptor): 6.17 | pKi (D(2) dopamine receptor): 6.52 | pKi [19]: 5.20 | pKi [20]: 5.51 | pKi [21]: 6.27 | Kp at 1 h [22]: 3.8 | Imax [23]: 100% | Kb [24]: 0.02 nM | pIC50 (Cytochrome P450 3A4): 5.19 | metabolised at 0.5 h, 2.5 µM [25]: 0% | metabolised at 0.5 h, 2.5 µM [26]: 40% | pIC50 (Cytochrome P450 2D6): 4.83
